In ChEMBL document CHEMBL1201862, “PubChem BioAssay data set” (2004):
The source made the active and inactive calls.

What was measured:
[1] = M. tuberculosis H37Rv growth inhibitors, H37Rv strain (AID 1626); type: functional
Aspartyl aminopeptidase = Aspartyl aminopeptidase (Plasmodium falciparum 3D7, UniProt Q8I2J3)
Procathepsin L = Procathepsin L (Homo sapiens, UniProt P07711)
Estrogen receptor = biological target: T1, Estrogen receptor (Homo sapiens, UniProt P03372); experiment: ERα coactivator recruitment enhancers – biochemical, TR-FRET, ERα LBD, dose response (AID 737)
T1 sequence (P03372 whole entry): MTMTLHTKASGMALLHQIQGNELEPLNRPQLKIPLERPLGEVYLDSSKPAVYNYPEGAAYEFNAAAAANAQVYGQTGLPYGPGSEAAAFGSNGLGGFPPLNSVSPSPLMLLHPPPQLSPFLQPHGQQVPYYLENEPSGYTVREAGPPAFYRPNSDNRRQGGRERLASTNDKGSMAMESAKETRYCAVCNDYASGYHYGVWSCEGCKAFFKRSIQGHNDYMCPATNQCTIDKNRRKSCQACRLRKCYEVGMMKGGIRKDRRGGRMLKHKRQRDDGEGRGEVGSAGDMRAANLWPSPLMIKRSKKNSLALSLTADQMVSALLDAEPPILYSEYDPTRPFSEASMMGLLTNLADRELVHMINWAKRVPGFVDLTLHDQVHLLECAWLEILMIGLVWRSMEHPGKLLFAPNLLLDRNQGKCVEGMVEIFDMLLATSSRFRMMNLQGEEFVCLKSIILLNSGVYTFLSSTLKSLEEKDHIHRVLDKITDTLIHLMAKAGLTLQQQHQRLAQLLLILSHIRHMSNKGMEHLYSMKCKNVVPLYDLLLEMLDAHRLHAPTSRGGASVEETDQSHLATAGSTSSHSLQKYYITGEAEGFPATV

[2] = antiviral protection against BTV-induced cell death – arbovirus, BSR cells, confirmation (AID 1250); type: functional;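 further: protection from viral cytopathic effect measured as cell viability by ATP luminescence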
[3] = viability of uninfected HEp-2 cells – cell-based, HTS, cytotoxicity control for RSV inhibitor project, dose response (AID 2410); type: functional; conditions: human respiratory syncytial virus
[4] = biological target: Luciferin 4-monooxygenase (Photinus pyralis, UniProt P08659); experiment: In vitro luciferase assay using purified luciferase. [Related pubchem assays: 1299, 1270, 1295, 1375, 1287, 1281, 1293, 1291, 1289, 1280, 465, 1364, 1282, 1372, 1365, 1370, 1367, 1366, 1266, 1373, 1292, 1290, 1302, 1371, 1283, 1271, 1294, 1374, 1368, 1369 ]
HEK293 [5] = experiment: Cytotoxicity assay in HEK293 cells. [Related pubchem assays (depositor defined):AID1266, AID1269, AID1270, AID1271, AID1280, AID1281, AID1282, AID1283, AID1287, AID1289, AID1290, AID1291, AID1292, AID1293, AID1294, AID1295, AID1299, AID1302, AID1364, AID1365, AID1366, AID1367, AID1369, AID1370, AID1371, AID1372, AID1373, AID1374, AID1375, AID1384 …; type: functional, cell-based; conditions: Homo sapiens
HEK293 [6] = experiment: PMA/Ionomycin induced NF-kB luciferase assay in 293- NF-kB-Luc stable cells. [Related pubchem assays: 1299, 1270, 1295, 1375, 1287, 1281, 1293, 1291, 1289, 1280, 465, 1364, 1282, 1372, 1365, 1370, 1367, 1366, 1269, 1373, 1292, 1290, 1302, 1371, 1283, 1271, 1294, 1374, 1368, 1369 ]; type: functional, cell-based; conditions: Homo sapiens
Vero [7] = experiment: host cell viability loss, Vero E6 – synthesized analogs, cytotoxicity control for West Nile virus antiviral project, SAR follow-up (AID 2244); type: functional; conditions: Chlorocebus sabaeus
[8] = A Cell Based Assay for the Identification of Probe candidate Compounds with Anti- Venezuelan Equine Encephalitis virus. [Related pubchem assays: 2409, 2419, 1621, 2238, 2405, 2024, 2065, 2402, 2414, 1635, 1650, 2244 ]; type: functional
Vero [9] = experiment: Vero 76 cell viability after compound exposure – Vero 76 cells, synthesized analogs, cytotoxicity control for West Nile virus antiviral project, SAR follow-up (AID 2414); type: functional; conditions: Chlorocebus sabaeus
Vero [10] = experiment: Vero cell viability after compound exposure – synthesized analogs, set II, cytotoxicity control for West Nile virus antiviral project, SAR follow-up (AID 2402); type: functional; conditions: Chlorocebus sabaeus
[11] = biological target: Serine/threonine-protein phosphatase PP1-alpha catalytic subunit (Homo sapiens, UniProt P62136); experiment: inhibition of protein phosphatase 1 activity – biochemical, fluorescence, dose response (AID 2403);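 further: phosphatase turnover of OMFP into fluorescent 3-O-methylfluorescein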
Chain of Serine/threonine-protein phosphatase PP1-alpha catalytic subunit (P62136 whole entry): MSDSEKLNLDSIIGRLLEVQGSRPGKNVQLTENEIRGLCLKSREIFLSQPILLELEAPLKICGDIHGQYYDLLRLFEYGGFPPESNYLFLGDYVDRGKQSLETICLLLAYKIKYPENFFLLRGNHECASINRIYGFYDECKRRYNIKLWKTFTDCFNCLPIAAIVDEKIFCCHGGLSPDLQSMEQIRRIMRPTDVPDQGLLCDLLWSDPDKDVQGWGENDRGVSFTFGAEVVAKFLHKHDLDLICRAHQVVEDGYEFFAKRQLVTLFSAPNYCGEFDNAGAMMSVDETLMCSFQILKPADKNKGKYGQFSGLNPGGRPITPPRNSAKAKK

Streptococcus = experiment: GAS UMAA2166 growth inhibition – luminescence, BacTiterGlo, counter-screen for streptokinase expression inhibitor project, dose response (AID 1915); type: functional, organism-based;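 further: potency for reduction of bacterial viability or growth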
Streptokinase A = biological target: T2, Streptokinase A (Streptococcus pyogenes serotype M1, UniProt P10520); experiment: viability-normalized secreted streptokinase activity reduction – plasminogen activation absorbance, OD405, dose response (AID 1914); type: functional, Streptococcus pyogenes M1 GAS;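 further: secreted streptokinase activity via plasminogen activation per viability signal from cell pellet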
T2 sequence (P10520 whole entry): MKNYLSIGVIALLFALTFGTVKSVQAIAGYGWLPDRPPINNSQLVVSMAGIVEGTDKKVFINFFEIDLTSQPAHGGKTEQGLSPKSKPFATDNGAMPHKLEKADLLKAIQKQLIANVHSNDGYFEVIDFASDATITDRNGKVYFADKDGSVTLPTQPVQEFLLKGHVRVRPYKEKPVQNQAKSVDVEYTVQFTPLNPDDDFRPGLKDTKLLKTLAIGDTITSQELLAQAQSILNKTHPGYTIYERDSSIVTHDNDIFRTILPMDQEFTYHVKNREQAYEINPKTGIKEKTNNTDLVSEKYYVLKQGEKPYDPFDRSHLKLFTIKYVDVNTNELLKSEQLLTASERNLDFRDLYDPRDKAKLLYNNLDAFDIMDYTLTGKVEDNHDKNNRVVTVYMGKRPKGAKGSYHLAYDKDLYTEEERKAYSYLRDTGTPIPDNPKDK

[12] = system: Streptococcus sp. 'group A'; experiment: Streptococcus pyogenes SK(-)GAS viability under kanamycin – luminescence, BacTiterGlo, confirmation, counter-screen for streptokinase expression inhibitor project, dose response (AID 1900); type: functional, organism-based
[13] = biological target: Serine/threonine-protein phosphatase (Homo sapiens, UniProt Q9BPW0); experiment: Counterscreen for inhibitors of PP1: fluorescence-based biochemical high throughput dose response assay to identify inhibitors of Protein Phosphatase 5 (PP5). [Related pubchem assays: 2034 (Summary (PP5 inhibitors)), 1987 (PP5 inhibitors in singlate), 2235 (PP1 inhibitors in singlate)]
Chain of Serine/threonine-protein phosphatase (Q9BPW0 whole entry): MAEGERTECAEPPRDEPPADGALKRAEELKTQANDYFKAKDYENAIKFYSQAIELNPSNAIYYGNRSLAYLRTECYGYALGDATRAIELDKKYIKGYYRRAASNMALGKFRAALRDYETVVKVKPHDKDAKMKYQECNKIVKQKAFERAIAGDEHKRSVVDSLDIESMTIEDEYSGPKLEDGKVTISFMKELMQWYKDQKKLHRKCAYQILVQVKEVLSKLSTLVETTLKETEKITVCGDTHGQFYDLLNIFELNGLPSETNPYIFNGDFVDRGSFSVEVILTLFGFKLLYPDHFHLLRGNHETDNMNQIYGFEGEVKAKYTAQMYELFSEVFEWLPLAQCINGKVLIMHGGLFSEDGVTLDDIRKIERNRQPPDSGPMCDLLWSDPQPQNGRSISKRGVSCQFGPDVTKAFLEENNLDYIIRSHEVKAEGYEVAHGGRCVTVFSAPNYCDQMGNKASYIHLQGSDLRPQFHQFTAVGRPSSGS

[14] = viability of PTEN-deleted HCT116 cells – cell-based, HCT116 PTEN knockout, dose response (AID 1047); type: functional;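 further: HCT116 colon tumor cells with PTEN knocked out; cells exposed to compound for 60 hours before readout; potency for loss of cell viability measured by luminescence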
[15] = viability of HCT116 lacking mutant beta-catenin – cell-based, human colon tumor, dose response (AID 1045); type: functional;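 further: HCT116 colon tumor cells with beta catenin knocked out; cells exposed to compound for 60 hours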
Cytochrome P450 2D6 = Cytochrome P450 2D6 (Homo sapiens, UniProt P10635); experiment: qHTS Assay for Inhibitors and Substrates of Cytochrome P450 2D6. [Related pubchem assays: 410 ]; type: ADME; conditions: read-out: Potency
Cytochrome P450 3A4 = Cytochrome P450 3A4 (Homo sapiens, UniProt P08684); conditions: Potency;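 further: confirmatory qHTS run detecting inhibitors and substrates of CYP3A4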
[16] = biological target: T3, Oxysterols receptor LXR-beta (Homo sapiens, UniProt P55055); experiment: LXR agonists, Gal4 luciferase reporter, dose response, counter-screen for ssDAF-12 agonist project, cell-based, luminescence, HEK293, S. stercoralis campaign (AID 720737); type: functional; conditions: read-out: IC50 (the source's name)
T3 sequence (P55055 whole entry): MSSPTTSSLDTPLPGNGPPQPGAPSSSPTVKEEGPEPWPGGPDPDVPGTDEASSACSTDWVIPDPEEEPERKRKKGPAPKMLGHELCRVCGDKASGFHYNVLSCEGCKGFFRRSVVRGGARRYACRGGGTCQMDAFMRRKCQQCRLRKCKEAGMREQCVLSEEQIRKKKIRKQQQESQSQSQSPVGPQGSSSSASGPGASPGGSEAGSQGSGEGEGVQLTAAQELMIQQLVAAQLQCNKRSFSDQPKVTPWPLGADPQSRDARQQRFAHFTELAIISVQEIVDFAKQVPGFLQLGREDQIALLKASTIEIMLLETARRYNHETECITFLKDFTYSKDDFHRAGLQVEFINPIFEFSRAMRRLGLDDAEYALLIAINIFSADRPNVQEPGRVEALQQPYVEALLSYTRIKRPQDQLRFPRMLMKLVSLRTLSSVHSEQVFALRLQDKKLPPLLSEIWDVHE

[17] = biological target: T3, Oxysterols receptor LXR-beta; type: functional, cell-based
[18] = Luminescence-based cell-based high throughput dose response assay to identify activators of the DAF-12 from the parasite S. stercoralis (ssDAF-12).; type: functional
[19] = biological target: G2/mitotic-specific cyclin-B1 (Homo sapiens, UniProt P14635); experiment: Counterscreen assay for inhibitors of Wee1 degradation: dose response cell-based assay to identify inhibitors of cyclin B degradation. [Related pubchem assays: 1410, 1321 ]; type: functional
Wee1-like protein kinase = Wee1-like protein kinase (Homo sapiens, UniProt P30291); experiment: Dose Response Cell-based Assay for Inhibitors of Wee1 Degradation. [Related pubchem assays: 1410, 1321 ]; type: functional
[20] = biological target: Neuropeptide Y receptor type 1 (Homo sapiens, UniProt P25929); type: functional;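 further: HEK293 cells with a CNG channel challenged with NPY then isoproterenol; potency as antagonist that reverses NPY suppression of cAMP signal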
Chain of Neuropeptide Y receptor type 1 (P25929 whole entry): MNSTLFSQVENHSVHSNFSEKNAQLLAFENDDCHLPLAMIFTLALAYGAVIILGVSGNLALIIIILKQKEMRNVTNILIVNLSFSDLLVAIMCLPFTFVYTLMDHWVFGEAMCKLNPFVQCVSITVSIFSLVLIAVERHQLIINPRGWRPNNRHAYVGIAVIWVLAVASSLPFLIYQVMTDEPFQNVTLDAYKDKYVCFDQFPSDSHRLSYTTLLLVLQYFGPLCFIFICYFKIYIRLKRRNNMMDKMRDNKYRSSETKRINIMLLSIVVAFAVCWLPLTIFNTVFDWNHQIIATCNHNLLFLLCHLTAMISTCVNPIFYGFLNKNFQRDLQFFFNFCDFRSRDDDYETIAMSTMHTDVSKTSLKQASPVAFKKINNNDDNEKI

[21] = biological target: Neuropeptide Y receptor type 2 (Homo sapiens, UniProt P49146); type: functional, cell-based;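 further: HEK293 cells expressing the receptor and a CNG channel; stimulus was NPY near EC95 followed by isoproterenol to raise cAMP; antagonist potency measured as restoring cAMP signal that NPY suppresses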
[22] = biological target: T4, Alkaline phosphatase, tissue-nonspecific isozyme (Homo sapiens, UniProt P05186)
T4 sequence (P05186 whole entry): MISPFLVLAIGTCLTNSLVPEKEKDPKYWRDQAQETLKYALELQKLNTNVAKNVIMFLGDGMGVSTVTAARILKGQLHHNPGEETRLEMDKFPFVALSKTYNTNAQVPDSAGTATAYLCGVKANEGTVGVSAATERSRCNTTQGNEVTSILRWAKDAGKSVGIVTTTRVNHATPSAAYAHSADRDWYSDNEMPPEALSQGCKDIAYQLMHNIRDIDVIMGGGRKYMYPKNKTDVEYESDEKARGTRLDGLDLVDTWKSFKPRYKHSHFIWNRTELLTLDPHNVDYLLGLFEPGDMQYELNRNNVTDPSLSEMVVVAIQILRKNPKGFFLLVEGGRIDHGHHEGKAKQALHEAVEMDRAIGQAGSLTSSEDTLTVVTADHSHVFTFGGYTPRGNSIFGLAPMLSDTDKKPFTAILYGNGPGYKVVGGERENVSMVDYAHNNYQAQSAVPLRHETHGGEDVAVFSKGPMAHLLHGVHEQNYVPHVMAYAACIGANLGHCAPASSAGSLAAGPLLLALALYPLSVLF

[23] = biological target: Peroxisome proliferator-activated receptor gamma/Nuclear receptor coactivator 2 (Homo sapiens, UniProt P37231); type: functional;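 further: agonist potency for raising coactivator recruitment to the receptor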
[24] = biological target: Peroxisome proliferator-activated receptor gamma/Nuclear receptor coactivator 3 (Homo sapiens, UniProt P37231); type: functional;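 further: agonist potency for raising coactivator recruitment to the receptor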
Chain of Peroxisome proliferator-activated receptor gamma/Nuclear receptor coactivator 3 (P37231 whole entry): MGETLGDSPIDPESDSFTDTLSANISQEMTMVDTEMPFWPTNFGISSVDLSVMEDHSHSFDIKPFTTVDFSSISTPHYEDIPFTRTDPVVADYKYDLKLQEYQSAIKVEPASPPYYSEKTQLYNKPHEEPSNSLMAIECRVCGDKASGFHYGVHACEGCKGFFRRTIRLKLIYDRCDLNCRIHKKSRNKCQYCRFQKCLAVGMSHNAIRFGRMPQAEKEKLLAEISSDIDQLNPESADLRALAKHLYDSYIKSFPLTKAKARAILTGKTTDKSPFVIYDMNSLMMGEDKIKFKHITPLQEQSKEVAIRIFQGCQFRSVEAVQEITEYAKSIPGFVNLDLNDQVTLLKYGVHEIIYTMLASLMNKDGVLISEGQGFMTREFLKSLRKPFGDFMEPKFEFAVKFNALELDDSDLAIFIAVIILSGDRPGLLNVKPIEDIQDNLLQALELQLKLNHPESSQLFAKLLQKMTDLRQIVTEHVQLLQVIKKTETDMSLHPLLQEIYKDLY
Chain of Peroxisome proliferator-activated receptor gamma/Nuclear receptor coactivator 3 (Q9Y6Q9 whole entry, further chain): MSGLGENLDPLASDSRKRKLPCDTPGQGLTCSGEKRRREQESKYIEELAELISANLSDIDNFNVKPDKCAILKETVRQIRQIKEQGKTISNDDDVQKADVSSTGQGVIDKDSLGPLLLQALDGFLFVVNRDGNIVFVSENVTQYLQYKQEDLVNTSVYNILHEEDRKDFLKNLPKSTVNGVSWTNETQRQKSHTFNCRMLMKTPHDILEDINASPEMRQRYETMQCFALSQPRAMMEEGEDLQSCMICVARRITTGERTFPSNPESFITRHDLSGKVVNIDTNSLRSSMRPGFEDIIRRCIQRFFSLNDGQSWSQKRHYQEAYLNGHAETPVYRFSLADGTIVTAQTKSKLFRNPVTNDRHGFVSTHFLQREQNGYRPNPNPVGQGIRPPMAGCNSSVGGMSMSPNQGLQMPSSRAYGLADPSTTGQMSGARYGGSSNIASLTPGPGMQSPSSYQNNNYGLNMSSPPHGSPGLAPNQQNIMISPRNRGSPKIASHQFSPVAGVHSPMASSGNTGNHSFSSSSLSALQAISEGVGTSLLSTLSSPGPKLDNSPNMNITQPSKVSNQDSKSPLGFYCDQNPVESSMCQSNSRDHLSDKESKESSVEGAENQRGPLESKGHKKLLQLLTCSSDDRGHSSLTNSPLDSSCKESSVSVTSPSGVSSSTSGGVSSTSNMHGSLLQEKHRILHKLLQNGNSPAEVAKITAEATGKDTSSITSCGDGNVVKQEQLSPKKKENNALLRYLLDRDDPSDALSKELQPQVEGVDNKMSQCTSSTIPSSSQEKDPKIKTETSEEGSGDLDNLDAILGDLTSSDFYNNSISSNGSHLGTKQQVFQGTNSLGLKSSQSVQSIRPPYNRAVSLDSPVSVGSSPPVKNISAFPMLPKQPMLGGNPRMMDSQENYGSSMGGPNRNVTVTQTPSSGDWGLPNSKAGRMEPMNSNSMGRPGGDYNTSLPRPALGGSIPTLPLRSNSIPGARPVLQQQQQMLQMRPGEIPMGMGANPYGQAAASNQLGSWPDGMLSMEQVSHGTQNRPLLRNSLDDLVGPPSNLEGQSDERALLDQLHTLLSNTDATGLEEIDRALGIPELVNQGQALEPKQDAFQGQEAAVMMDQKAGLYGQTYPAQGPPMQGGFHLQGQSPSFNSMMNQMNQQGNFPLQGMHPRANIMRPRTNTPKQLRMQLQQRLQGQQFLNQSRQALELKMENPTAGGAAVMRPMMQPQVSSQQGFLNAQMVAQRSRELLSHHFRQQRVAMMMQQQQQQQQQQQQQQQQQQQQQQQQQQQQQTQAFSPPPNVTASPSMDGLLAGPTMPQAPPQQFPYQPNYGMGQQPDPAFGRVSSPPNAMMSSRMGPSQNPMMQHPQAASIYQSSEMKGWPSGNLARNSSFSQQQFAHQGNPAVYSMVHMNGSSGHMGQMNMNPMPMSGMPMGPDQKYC

[25] = biological target: Peroxisome proliferator-activated receptor gamma/Nuclear receptor coactivator 1 (Homo sapiens, UniProt P37231); type: functional;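 further: agonist potency as compounds enhance coactivator SRC-1 recruitment to PPARgamma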
Chain of Peroxisome proliferator-activated receptor gamma/Nuclear receptor coactivator 1 (P37231 whole entry): as the sequence (P37231 whole entry) above
Chain of Peroxisome proliferator-activated receptor gamma/Nuclear receptor coactivator 1 (Q15788 whole entry, further chain): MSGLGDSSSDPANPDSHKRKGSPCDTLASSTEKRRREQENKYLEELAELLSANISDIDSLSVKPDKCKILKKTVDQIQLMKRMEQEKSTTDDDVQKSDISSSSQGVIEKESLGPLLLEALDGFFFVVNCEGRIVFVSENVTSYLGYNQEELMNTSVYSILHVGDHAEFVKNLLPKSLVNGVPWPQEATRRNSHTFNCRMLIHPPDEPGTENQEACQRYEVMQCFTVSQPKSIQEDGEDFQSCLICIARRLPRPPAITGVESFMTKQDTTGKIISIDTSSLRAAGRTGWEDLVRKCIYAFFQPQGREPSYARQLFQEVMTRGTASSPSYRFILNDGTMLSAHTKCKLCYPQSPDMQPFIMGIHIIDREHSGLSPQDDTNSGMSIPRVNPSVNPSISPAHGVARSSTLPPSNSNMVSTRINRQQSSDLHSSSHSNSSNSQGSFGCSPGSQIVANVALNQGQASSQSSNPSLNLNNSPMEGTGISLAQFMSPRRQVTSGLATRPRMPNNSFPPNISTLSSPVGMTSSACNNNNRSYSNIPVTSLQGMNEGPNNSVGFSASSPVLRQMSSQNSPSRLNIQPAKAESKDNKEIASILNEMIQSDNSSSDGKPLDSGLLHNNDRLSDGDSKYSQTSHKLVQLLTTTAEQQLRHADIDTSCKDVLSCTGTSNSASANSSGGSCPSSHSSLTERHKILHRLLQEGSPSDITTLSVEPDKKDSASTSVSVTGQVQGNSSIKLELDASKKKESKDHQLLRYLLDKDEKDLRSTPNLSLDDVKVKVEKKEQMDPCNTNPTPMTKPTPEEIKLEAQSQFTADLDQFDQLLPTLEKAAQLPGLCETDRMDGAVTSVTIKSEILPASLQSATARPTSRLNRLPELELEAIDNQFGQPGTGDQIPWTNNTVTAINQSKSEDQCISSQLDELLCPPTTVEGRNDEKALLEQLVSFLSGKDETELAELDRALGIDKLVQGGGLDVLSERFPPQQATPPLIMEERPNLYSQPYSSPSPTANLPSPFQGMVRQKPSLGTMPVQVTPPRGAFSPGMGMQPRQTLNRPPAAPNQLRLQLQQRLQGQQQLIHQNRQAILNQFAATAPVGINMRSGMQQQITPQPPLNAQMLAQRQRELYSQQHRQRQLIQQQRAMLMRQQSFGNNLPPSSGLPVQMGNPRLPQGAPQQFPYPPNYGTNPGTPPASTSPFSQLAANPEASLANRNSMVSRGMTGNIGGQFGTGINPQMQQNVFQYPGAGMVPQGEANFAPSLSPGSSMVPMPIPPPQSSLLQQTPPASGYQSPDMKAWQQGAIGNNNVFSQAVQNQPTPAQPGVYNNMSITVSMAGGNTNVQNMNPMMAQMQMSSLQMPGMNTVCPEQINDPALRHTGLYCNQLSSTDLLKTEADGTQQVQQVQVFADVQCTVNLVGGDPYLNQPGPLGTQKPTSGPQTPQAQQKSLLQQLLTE

SMILES: O=C(COC(=O)/C=C/c1nc2ccccc2s1)Nc1cccc(Cl)c1Cl
- IC50 [1]: > 100 µM (active)

SMILES: COc1ccc(Cl)cc1NC(=O)Nn1cnnc1
- IC50 (Aspartyl aminopeptidase): 0.832 µM (active)
- IC50 (Procathepsin L): > 59.6 µM (not active)

SMILES: O=C(Cn1ncc2c(=O)oc3ccccc3c21)Nc1nc2ccccc2s1
- EC50 (Estrogen receptor): 6.23 µM (active)

SMILES: COc1ccc(-c2nc(NC(=O)c3nnc(O)c4ccccc34)sc2C)cc1
- IC50 [2]: > 100 µM (active)
- CC50 [3]: 40.5 µM (active)

SMILES: COc1ccc(/C=N/NC(=O)c2n[nH]c3c2CCC3)cc1O
- EC50 [4]: > 8 µM (not active)
- EC50 (HEK293 [5]): > 8 µM (inactive)
- EC50 (HEK293 [6]): 4.21 µM (not active)

SMILES: COc1cccc(C(NC(=O)c2ccccc2)c2ccc3cccnc3c2O)c1 (centres undefined)
- CC50 (Vero [7]): 1.94 µM (active)
- IC50 [8]: 5.63 µM (active)
- CC50 (Vero [9]): 6.07 µM (active)
- CC50 (Vero [10]): 2.2 µM (active)

SMILES: COc1cnc(-c2ccccn2)nc1Sc1ccc(Cl)cc1
- IC50 [11]: 6.47 µM (active)
- EC50 (Streptococcus): 15.3 µM (active)
- EC50 (Streptokinase A): > 150 µM (not active)
- EC50 [12]: 9.35 µM (active)
- IC50 [13]: > 67 µM (not active)
- EC50 [14]: 21.6 µM (active)
- EC50 [15]: 18.6 µM (active)

SMILES: Cc1nc(/N=N\c2ccc(C(=O)O)cc2)c(COP(=O)(O)O)c(C=O)c1O
- AC50 (Cytochrome P450 2D6): 39.8 µM (inconclusive)
- AC50 (Cytochrome P450 3A4): 10 µM (inconclusive)

SMILES: CC(=O)Nc1ccc(/C=N/Nc2nc3ccccc3s2)cc1
- EC50 [16]: > 67.5 µM (inactive)
- EC50 (cells): > 67.5 µM (inactive)
- EC50 [17]: > 67.5 µM (inactive)
- IC50 [18]: > 67.5 µM (inactive)
- EC50 [19]: > 49.7 µM (not active)
- EC50 (Wee1-like protein kinase): > 49.7 µM (not active)

SMILES: COc1ccccc1OCCCCN1CCN(C(c2ccccc2)c2ccccc2)CC1
- IC50 [20]: > 35 µM (not active)
- IC50 [21]: > 35 µM (not active)

SMILES: Cn1cc(Cl)c(C(=O)NNC(=S)NC2CCCCC2)n1
- EC50 [22]: 41 µM (active)

SMILES: Cc1cc(=O)[nH]c2c1c(C)nn2C1CCCC1
- EC50 [23]: > 79.4 µM (not active)
- EC50 [24]: > 79.4 µM (not active)
- EC50 [25]: > 79.4 µM (not active)
